For test [1], the system named is Bone marrow mast cells (BMMCs). The test is described as follows: IgE-induced LAT phosphorylation in bone marrow mast cells. It counts as cell-based, mice. The following applies: Mus musculus, BMMC; BMMCs from female BALB/C mice, sensitized with SPE-7, stimulated with DNP-BSA; upper bound is 'less than'; read-out: IC50, IgE-induced LAT phosphorylation.
Test [2] concerns RBL-2H3 cells. Briefly: IgE-induced Beta-hexosaminidase secretion in RBL-2H3 cells. The class given is cell-based. The following applies: Rattus norvegicus, RBL-2H3, RBL-2H3 cells sensitized with SPE-7, stimulated with DNP-BSA; upper bound of each range is 'less than'; read-out: IC50, IgE-induced Beta-hexosaminidase secretion.
The target in test [3] is Syk kinase (Homo sapiens, UniProt P43405). Briefly: Syk kinase enzymatic assay (Kit-Tyr 2 Peptide). It counts as biochemical. The following applies: 8 concentrations, 1 μM down to 0.0003 μM; upper bound of each range is 'less than'; read-out: IC50: Enzymatic Activity (Syk kinase).

A word on the IC50: it is the concentration that gives 50% inhibition.

Molecules are shown by their SMILES.

With `CNc1ccc(-c2cc3nccnc3c(NC[C@H]3CCCNC3)n2)cc1F` [Compound 140], the IC50 in test [1] was 100 to 1000 nM; in test [2], 1 to 100 nM; in test [3] it was 1 to 100 nM.
For `OC[C@H]1CCN(c2nc(-c3ccc(N4CCOCC4)cc3)cc3nccnc23)C1` [Compound 163, (S)-(1-(7-(4-morpholinophenyl)pyrido[4,3-b]pyrazin-5-yl)pyrrolidin-3-yl)methanol], the IC50 in test [1] lay in the range of 100 to 1000 nM; in test [2], 1 to 100 nM; in test [3], 100 to 1000 nM.
Turning to `CN(C)c1ccc(-c2cc3nccnc3c(NC[C@@H]3CNCCO3)n2)cc1` [Compound 107], the half-maximal inhibitory concentration (IC50) fell in the range of 100 to 1000 nM in test [1], 1 to 100 nM in test [2] and 1 to 100 nM in test [3].
Take `CNc1ccc(-c2cc3nccnc3c(NC[C@@H]3CNCCO3)n2)cc1F` [Compound 137]: the results for the 50% inhibitory concentration (IC50) in test [1], in test [2] and in test [3] were 100 to 1000 nM, 1 to 100 nM and 1 to 100 nM, respectively.
For `CN(C)c1ccc(-c2cc3nccnc3c(NCCCN)n2)cc1` [Compound 185], the IC50 in test [1] was in the range of 100 to 1000 nM; in test [2], 100 to 1000 nM; in test [3], 1 to 100 nM.
For the compound `c1cnc2c(NC[C@@H]3CNCCO3)nc(-c3ccc(N4CCOCC4)nc3)cc2n1` [Compound 99], the half-maximal inhibitory concentration (IC50) in test [1] was in the range of 100 to 1000 nM; in test [2], 1 to 100 nM; in test [3], 1 to 100 nM.
Take `OC[C@@H]1CCN(c2nc(-c3ccc(N4CCOCC4)cc3)cc3nccnc23)C1` [Compound 159, (R)-(1-(7-(4-morpholinophenyl)pyrido[4,3-b]pyrazin-5-yl)pyrrolidin-3-yl)methanol]: the IC50 in test [1] lay in the range of 100 to 1000 nM; in test [2], 1 to 100 nM; in test [3] it was 100 to 1000 nM.
As for `c1cnc2c(NC[C@H]3CCCNC3)nc(-c3ccc(N4CCCC4)cc3)cc2n1` [Compound 70], the values for the concentration for half-maximal inhibition (IC50) in test [1], in test [2] and in test [3] were 100 to 1000 nM, 1 to 100 nM and 1 to 100 nM, respectively.
For `c1cnc2c(N3CCC4(CCCNC4)C3)nc(-c3ccc(N4CCOCC4)cc3)cc2n1` (stereo not drawn) [Compound 105], the concentration for half-maximal inhibition (IC50) was in the range of 100 to 1000 nM in test [1], 1 to 100 nM in test [2] and 1 to 100 nM in test [3].
Consider `CNc1ccc(-c2cc3nccnc3c(NC[C@H]3CCCNC3)n2)cc1` [Compound 82], for which the values for the concentration for half-maximal inhibition (IC50) in test [1], in test [2] and in test [3] were 100 to 1000 nM, 1 to 100 nM and 1 to 100 nM, respectively.
For the compound `Cc1cc(-c2cc3nccnc3c(NC[C@H]3CCCNC3)n2)ccc1N1CCOCC1` [Compound 94], the concentration for half-maximal inhibition (IC50) in test [1] lay in the range of 100 to 1000 nM; in test [2], 100 to 1000 nM; in test [3], 1 to 100 nM.
On to `FC1CNCC(CNc2nc(-c3ccc(N4CCOCC4)cc3)cc3nccnc23)C1` (stereo not drawn) [Compound 156], for which the IC50 was in the range of 100 to 1000 nM in test [1], 1 to 100 nM in test [2] and 1 to 100 nM in test [3].
On to `c1cnc2c(N3CCC4(CCNC4)C3)nc(-c3ccc(N4CCOCC4)cc3)cc2n1` (stereo not drawn) [Compound 71], for which the 50% inhibitory concentration (IC50) in test [1] was in the range of 100 to 1000 nM; in test [2], 100 to 1000 nM; in test [3], 1 to 100 nM.

Values taken from US10052330B2, “Substituted pyrido[3,4-b]pyrazines as Syk inhibitors” (HUTCHISON MEDIPHARMA LIMITED, priority 2011, dated 2018).
